# Laboratory results as given in article PMC2844127 (Journal of medicinal chemistry, 2010).
# Columns and labels:
# dopamine rD3 receptor = dopamine rD3 receptor (Rattus norvegicus, UniProt P19020); settings: ratio of Ki D2L to Ki D3
# 6-OHDA lesioned rats = experiment: Rotational experiment with 6-OHDA lesioned rats; assay type: in vivo, rat
# dopamine hD3 receptor = dopamine hD3 receptor (Homo sapiens, UniProt P35462); experiment: Stimulation of [35S]GTPγS binding, hD3 receptors expressed in CHO cells; assay type: biochemical; settings: read-out: %Emax, CHO-D3
# Chain of dopamine hD3 receptor (P35462 whole entry): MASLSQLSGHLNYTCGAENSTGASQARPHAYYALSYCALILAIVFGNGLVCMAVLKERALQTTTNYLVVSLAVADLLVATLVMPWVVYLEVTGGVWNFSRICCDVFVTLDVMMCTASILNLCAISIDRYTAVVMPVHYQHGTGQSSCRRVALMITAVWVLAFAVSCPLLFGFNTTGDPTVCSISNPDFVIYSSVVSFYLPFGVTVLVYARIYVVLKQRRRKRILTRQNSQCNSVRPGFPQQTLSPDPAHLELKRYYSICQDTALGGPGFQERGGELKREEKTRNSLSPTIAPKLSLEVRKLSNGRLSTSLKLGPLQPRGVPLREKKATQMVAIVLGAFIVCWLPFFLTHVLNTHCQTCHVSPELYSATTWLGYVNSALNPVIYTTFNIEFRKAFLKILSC
# Chain of dopamine rD3 receptor (P19020 whole entry): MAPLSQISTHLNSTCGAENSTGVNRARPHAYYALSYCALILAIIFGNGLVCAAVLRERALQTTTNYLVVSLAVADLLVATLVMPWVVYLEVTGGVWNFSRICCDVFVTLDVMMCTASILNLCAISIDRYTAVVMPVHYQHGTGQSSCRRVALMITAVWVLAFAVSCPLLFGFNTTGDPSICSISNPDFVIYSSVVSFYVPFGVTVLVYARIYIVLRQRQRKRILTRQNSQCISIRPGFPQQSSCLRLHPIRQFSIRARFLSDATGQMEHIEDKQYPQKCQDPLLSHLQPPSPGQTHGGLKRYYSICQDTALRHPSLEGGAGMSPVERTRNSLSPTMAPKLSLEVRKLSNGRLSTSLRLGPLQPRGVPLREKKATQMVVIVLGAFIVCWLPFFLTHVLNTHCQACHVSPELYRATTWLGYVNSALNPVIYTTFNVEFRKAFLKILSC
smiles,measurement,setting,value
"CCCN(CCN1CCN(Cc2ccc(O)c3ncccc23)CC1)C1CCc2ccc(O)cc2C1 (centres unmarked) [Compound 12a, 5-((4-(2-((7-hydroxy-1,2,3,4-tetrahydronaphthalen-2-yl)(propyl)amino)ethyl)piperazin-1-yl)methyl) quinolin-8-ol]",D2L/D3,dopamine rD3 receptor,15.4
"CCCN(CCN1CCN(Cc2ccc(O)c3ncccc23)CC1)C1CCc2c(O)cccc2C1 (centres unmarked) [Compound 12b, 5-((4-(2-((5-hydroxy-1,2,3,4-tetrahydronaphthalen-2-yl)(propyl)amino)ethyl)piperazin-1-yl)methyl)quinolin-8-ol]",D2L/D3,dopamine rD3 receptor,11.2
CN1CCc2cccc3c2[C@H]1Cc1ccc(O)c(O)c1-3 [apomorphine],average rotation (contralateral),"6-OHDA lesioned rats; 0.05 mg/kg, 21 days post lesion, recorded for 30 min, four rats",> 250
CCCN(CCC)CCc1cccc2c1CC(=O)N2 [Ropinirole],Emax,dopamine hD3 receptor,66.6 ± 8.1%
same,rotational activity,6-OHDA lesioned rats; 5 µMol/kg,much less rotations with shorter duration of action
